Results reported in patent US8361968B2 (Takeda Pharmaceutical Company Limited, priority 2002, dated 2013).
Numbered stars: 1 amine (or outer) side, 2 acyl side, 3 side chain; on linkers, the order of the positions; unused ones are H or OH. Square brackets hold non-standard residues; d marks the D form. Peptide text beside a SMILES is read from it. * marks the point of attachment. NαAmidinoTrp = N=C(N)N[C@@H](Cc1c[nH]c2ccccc12)C(=O)*; X11 = O=C(CNC(=S)[C@H](Cc1ccccc1)N[*:1])[*:2]; X1 = O=C([C@H](Cc1ccc2ccccc2n1)N[*:1])[*:2]; X7 = CNC(=N)NCCCC[C@H](N[*:1])C(=O)[*:2]; Phe(4-F) = N[C@@H](Cc1ccc(F)cc1)C(=O)O; X8 = CNC(=N)NCC[C@H](N[*:1])C(=O)[*:2]; Cyclohexanecarbonyl = O=C(C1CCCCC1)*; Arg(Me) = CNC(=N)NCCC[C@H](N)C(=O)O; 2Pal = N[C@@H](Cc1ccccn1)C(=O)O; 4Pal = N[C@@H](Cc1ccncc1)C(=O)O; Orn = NCCC[C@H](N)C(=O)O; Hexanoyl = CCCCCC(=O)*; azaGly = NNC(=O)O

Legend:
[1] = in vitro; settings: female, Balb/c, mouse, serum
Experimental: Blood was drawn from Balb/c mice (female) of 8 weeks old, settled at 37° C. for 30 minutes and centrifuged at 13000 rpm for 10 minutes to give the serum as the supernatant. The serum thus obtained was frozen-stored at −80° C.
The stability test was performed by addition of 5 nmol of Compound (5 μL of aqueous solution) to 45 μL of serum and then settlement of the mixture at 37° C. The settlement was made at 3 points of time, including 2, 10 and 30 minutes. The sample after the settlement was boiled for 3 minutes and cooled on an ice bath. After 200 μL of acetonitrile/water (3/1) was added to the sample, the mixture was ultrasonicated for 5 minutes and then centrifuged at 5000 rpm for 1 minute. After 150 μL of the supernatant was diluted with 250 μL of distilled water, insoluble matters were removed by filtration through a filter having a pore size of 0.45 μm and 200 μL of the filtrate was applied on HPLC (220 nm) to determine the peak area of Compound. A ratio of the peak area to the area when Compound was treated for 0 minute under the same conditions was calculated as a mean value in 4 respective runs to determine the residual ratio. Next, by taking the calculated residual ratio on the ordinate and the time on the abscissa, a graph was prepared and approximated by an exponential function.
The preparative HPLC used was the LC-VP series manufactured by Shimadzu Corporation and Wakosil-II 5C18 HG (4.6 mm×100 mm) manufactured by Wako Pure Chemical Industries, Ltd. was used as the column. Eluant A (0.1% TFA-containing water) and eluant B (0.1% TFA-containing acetonitrile) were used as eluants. Analysis was performed by linear density gradient elution (25 minutes) at a flow rate of 1.0 ml/min. using eluants A/B: 100/0-0/50.

[2] = target: T1, hOT7T175 (Homo sapiens, UniProt Q969F8, L364H); assay: Intracellular Ca ion level-increasing activity using FLIPR in hOT7T175/CHO; format: cell-based; set-up: expressed in transfected cells; host or cells: CHO/dhfr- cells, obtained from ATCC; settings: relative, Metastin (1-54) = 1
[3] = target: T1, hOT7T175; assay: hOT7T175 receptor binding activity: binding inhibition of Cy-5-labeled metastin (40-54) on hOT7T175-expressed CHO cells; set-up: expressed in transfected cells; host or cells: CHO cells

T1 sequence (Q969F8 whole entry L364H): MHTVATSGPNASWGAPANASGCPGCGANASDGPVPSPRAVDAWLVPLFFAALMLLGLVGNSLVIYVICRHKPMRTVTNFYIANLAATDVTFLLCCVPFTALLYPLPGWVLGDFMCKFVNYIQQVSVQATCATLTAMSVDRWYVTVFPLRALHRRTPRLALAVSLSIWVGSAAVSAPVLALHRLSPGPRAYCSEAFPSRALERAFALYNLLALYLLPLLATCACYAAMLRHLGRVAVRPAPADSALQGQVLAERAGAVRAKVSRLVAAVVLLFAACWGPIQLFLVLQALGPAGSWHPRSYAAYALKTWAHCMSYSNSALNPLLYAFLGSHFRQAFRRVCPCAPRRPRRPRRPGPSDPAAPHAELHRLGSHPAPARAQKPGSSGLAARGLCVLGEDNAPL

SMILES | half-life at 100 µM [1] [min] | Specific Activity (intracellular Ca ion level-increasing activity) [2] | IC50 [3] [nM]
CC[C@H](C)[C@H](NC(=O)[C@H](CCC(N)=O)NC(=O)[C@H](CCCNC(=N)N)NC(=O)[C@H](CO)NC(=O)[C@H](Cc1c[nH]cn1)NC(=O)[C@@H]1CCCN1C(=O)[C@H](C)NC(=O)[C@H](CO)NC(=O)[C@H](CC(C)C)NC(=O)CNC(=O)[C@@H]1CCCN1C(=O)[C@H](CCC(N)=O)NC(=O)[C@H](CCC(N)=O)NC(=O)[C@H](CCCNC(=N)N)NC(=O)[C@H](CO)NC(=O)CNC(=O)[C@H](CO)NC(=O)[C@H](CO)NC(=O)[C@H](CCC(=O)O)NC(=O)[C@@H]1CCCN1C(=O)[C@@H]1CCCN1C(=O)[C@@H]1CCCN1C(=O)[C@H](CO)NC(=O)[C@H](CC(C)C)NC(=O)[C@H](CO)NC(=O)[C@@H](NC(=O)CN)[C@@H](C)O)C(=O)N1CCC[C@H]1C(=O)N[C@@H](C)C(=O)N1CCC[C@H]1C(=O)N[C@@H](CCC(N)=O)C(=O)NCC(=O)N[C@@H](C)C(=O)N[C@H](C(=O)N[C@@H](CC(C)C)C(=O)N[C@H](C(=O)N[C@@H](CCC(N)=O)C(=O)N[C@@H](CCCNC(=N)N)C(=O)N[C@@H](CCC(=O)O)C(=O)N[C@@H](CCCCN)C(=O)N[C@@H](CC(=O)O)C(=O)N[C@@H](CC(C)C)C(=O)N1CCC[C@H]1C(=O)N[C@@H](CC(N)=O)C(=O)N[C@@H](Cc1ccc(O)cc1)C(=O)N[C@@H](CC(N)=O)C(=O)N[C@@H](Cc1c[nH]c2ccccc12)C(=O)N[C@@H](CC(N)=O)C(=O)N[C@@H](CO)C(=O)N[C@@H](Cc1ccccc1)C(=O)NCC(=O)N[C@@H](CC(C)C)C(=O)N[C@@H](CCCNC(=N)N)C(=O)N[C@@H](Cc1ccccc1)C(N)=O)C(C)C)C(C)C [Compound No. 1, Metastin, reference compound] | 22.5 | – | –
CNC(N)=NCCC[C@H](NC(=O)[C@H](CC(C)C)NC(=O)CNC(=O)[C@H](Cc1ccccc1)NC(=O)[C@H](CO)NC(=O)[C@H](CC(N)=O)NC(=O)[C@H](Cc1c[nH]c2ccccc12)NC(=O)[C@H](CC(N)=O)NC(=O)[C@@H](N)Cc1ccc(O)cc1)C(=O)N[C@@H](Cc1ccccc1)C(N)=O [Compound No. 82] | 1.8 | – | –
CNC(=N)NCCC[C@H](NC(=O)[C@H](CC(C)C)NC(=O)NNC(=O)[C@H](Cc1ccccc1)NC(=O)[C@H](Cc1ccccc1)NC(=O)[C@H](CO)NC(=O)[C@H](CC(N)=O)NC(=O)[C@H](Cc1ccccc1)NC(=O)[C@H](CC(N)=O)NC(=O)[C@H](N)Cc1ccc(O)cc1)C(=O)N[C@@H](Cc1ccccc1)C(N)=O [Compound No. 270, D-Tyr-Asn-Phe-Asn-Ser-Phe-Phe-AzaGly-Leu-Arg(Me)-Phe-NH2] (H-[dY]NFNSFF[azaGly]L[Arg(Me)]F-NH2) | – | 1 | 15
CNC(=N)NCCC[C@H](NC(=O)[C@H](CC(C)C)NC(=O)NNC(=O)[C@H](Cc1ccccc1)NC(=O)[C@H](CO)NC(=O)[C@H](CC(N)=O)NC(=O)[C@@H](N)Cc1c[nH]c2ccccc12)C(=O)N[C@@H](Cc1ccccc1)C(N)=O [Compound No. 271, Trp-Asn-Ser-Phe-AzaGly-Leu-Arg(Me)-Phe-NH2] (H-WNSF[azaGly]L[Arg(Me)]F-NH2; N-terminus assumed) | – | 1 | 120
CNC(=N)NCCC[C@H](NC(=O)[C@H](CC(C)C)NC(=O)NNC(=O)[C@H](Cc1ccccc1)NC(=O)[C@H](CO)NC(=O)[C@H](CC(N)=O)NC(=O)[C@H](Cc1c[nH]c2ccccc12)NC(C)=O)C(=O)N[C@@H](Cc1ccccc1)C(N)=O [Compound No. 272, Acetyl-Trp-Asn-Ser-Phe-AzaGly-Leu-Arg(Me)-Phe-NH2] (Ac-WNSF[azaGly]L[Arg(Me)]F-NH2) | – | 2 | 540
CNC(=N)NCCC[C@H](NC(=O)[C@H](CC(C)C)NC(=O)NNC(=O)[C@H](Cc1ccccc1)NC(=O)[C@H](CO)NC(=O)[C@H](CC(N)=O)NC(=O)[C@H](Cc1c[nH]c2ccccc12)NC(=N)N)C(=O)N[C@@H](Cc1ccccc1)C(N)=O [Compound No. 273, Amidino-Trp-Asn-Ser-Phe-AzaGly-Leu-Arg(Me)-Phe-NH2] (NαAmidinoTrp-NSF[azaGly]L[Arg(Me)]F-NH2) | – | 5 | 300
CCCCCC(=O)N[C@@H](CC(N)=O)C(=O)N[C@@H](CO)C(=O)N[C@@H](Cc1ccccc1)C(=O)NNC(=O)N[C@@H](CC(C)C)C(=O)N[C@@H](CCCNC(=N)NC)C(=O)N[C@@H](Cc1ccccc1)C(N)=O [Compound No. 277, n-Hexanoyl-Asn-Ser-Phe-AzaGly-Leu-Arg(Me)-Phe-NH2] (Hexanoyl-NSF[azaGly]L[Arg(Me)]F-NH2) | – | 2 | 54
CNC(=N)NCCC[C@H](NC(=O)[C@H](CC(C)C)NC(=O)NNC(=O)[C@H](Cc1ccccc1)NC(=O)[C@H](CO)NC(=O)[C@H](CC(N)=O)NC(=O)C1CCCCC1)C(=O)N[C@@H](Cc1ccccc1)C(N)=O [Compound No. 278, Cyclohexanecarbonyl-Asn-Ser-Phe-AzaGly-Leu-Arg(Me)-Phe-NH2] (Cyclohexanecarbonyl-NSF[azaGly]L[Arg(Me)]F-NH2) | – | 2 | 110
CNC(=N)NCCC[C@H](NC(=O)[C@H](CC(C)C)NC(=O)CNC(=O)[C@H](Cc1ccccn1)NC(=O)[C@H](CO)NC(=O)[C@H](CC(N)=O)NC(=O)[C@H](Cc1c[nH]c2ccccc12)NC(=O)[C@H](CC(N)=O)NC(=O)[C@H](N)Cc1ccc(O)cc1)C(=O)N[C@@H](Cc1ccccc1)C(N)=O [Compound No. 281, D-Tyr-Asn-Trp-Asn-Ser-Pya(2)-Gly-Leu-Arg(Me)-Phe-NH2] (H-[dY]NWNS[2Pal]GL[Arg(Me)]F-NH2) | – | ½ | 230
CNC(N)=NCCC[C@H](NC(=O)[C@H](CC(C)C)NC(=O)NNC(=O)[C@H](Cc1ccccc1)NC(=O)[C@H](CO)NC(=O)[C@H](CC(N)=O)NC(=O)[C@H](Cc1ccncc1)NC(=O)[C@H](CC(N)=O)NC(=O)[C@H](N)Cc1ccc(O)cc1)C(=O)N[C@@H](Cc1ccccc1)C(N)=O [Compound No. 286, D-Tyr-Asn-Pya(4)-Asn-Ser-Phe-AzaGly-Leu-Arg(Me)-Phe-NH2] (H-[dY]N[4Pal]NSF[azaGly]L[Arg(Me)]F-NH2) | 57.5 | – | 17
CNC(N)=NCCC[C@H](NC(=O)[C@H](CC(C)C)NC(=O)CNC(=S)[C@H](Cc1ccccc1)NC(=O)[C@H](CO)NC(=O)[C@H](CC(N)=O)NC(=O)[C@H](Cc1c[nH]c2ccccc12)NC(=O)[C@H](CC(N)=O)NC(=O)[C@H](N)Cc1ccc(O)cc1)C(=O)N[C@@H](Cc1ccccc1)C(N)=O [Compound No. 296, D-Tyr-Asn-Trp-Asn-Ser-PheΨ(CSNH)Gly-Leu-Arg(Me)-Phe-NH2] (H-[dY]NWNS[X11]L[Arg(Me)]F-NH2) | 47.2 | – | –
CNC(=N)NCCC[C@H](NC(=O)[C@H](CC(C)C)NC(=O)NNC(=O)[C@H](Cc1ccccc1)NC(=O)[C@H](CO)NC(=O)[C@H](CC(N)=O)NC(=O)[C@H](Cc1ccc2ccccc2n1)NC(=O)[C@H](CC(N)=O)NC(=O)[C@H](N)Cc1ccc(O)cc1)C(=O)N[C@@H](Cc1ccccc1)C(N)=O [Compound No. 301, D-Tyr-Asn-Ala(2-Qui)-Asn-Ser-Phe-AzaGly-Leu-Arg(Me)-Phe-NH2] (H-[dY]N[X1]NSF[azaGly]L[Arg(Me)]F-NH2) | – | 1 | 15
CNC(=N)NCCC[C@H](NC(=O)[C@H](CC(C)C)NC(=O)CNC[C@H](Cc1ccccc1)NC(=O)[C@H](CO)NC(=O)[C@H](CC(N)=O)NC(=O)[C@H](Cc1c[nH]c2ccccc12)NC(=O)[C@H](CC(N)=O)NC(=O)[C@H](N)Cc1ccc(O)cc1)C(=O)N[C@@H](Cc1ccccc1)C(N)=O [Compound No. 308, D-Tyr-Asn-Trp-Asn-Ser-PheΨ(CH2NH)Gly-Leu-Arg(Me)-Phe-NH2] | 13.2 | 2 | –
CNC(=N)NCC[C@H](NC(=O)[C@H](CC(C)C)NC(=O)CNC(=O)[C@H](Cc1ccccc1)NC(=O)[C@H](CO)NC(=O)[C@H](CC(N)=O)NC(=O)[C@H](Cc1c[nH]c2ccccc12)NC(=O)[C@H](CC(N)=O)NC(=O)[C@@H](N)Cc1ccc(O)cc1)C(=O)N[C@@H](Cc1ccccc1)C(N)=O [Compound No. 311] (H-YNWNSFGL[X8]F-NH2) | – | 1 | 470
CNC(=N)NCCCC[C@H](NC(=O)[C@H](CC(C)C)NC(=O)CNC(=O)[C@H](Cc1ccccc1)NC(=O)[C@H](CO)NC(=O)[C@H](CC(N)=O)NC(=O)[C@H](Cc1c[nH]c2ccccc12)NC(=O)[C@H](CC(N)=O)NC(=O)[C@@H](N)Cc1ccc(O)cc1)C(=O)N[C@@H](Cc1ccccc1)C(N)=O [Compound No. 312] (H-YNWNSFGL[X7]F-NH2) | – | 3 | 100
CC(C)C[C@H](NC(=O)CNC(=O)[C@H](Cc1ccccc1)NC(=O)[C@H](CO)NC(=O)[C@H](CC(N)=O)NC(=O)[C@H](Cc1c[nH]c2ccccc12)NC(=O)[C@H](CC(N)=O)NC(=O)[C@@H](N)Cc1ccc(O)cc1)C(=O)N[C@@H](CCCN)C(=O)N[C@@H](Cc1ccccc1)C(N)=O [Compound No. 314] (H-YNWNSFGL[Orn]F-NH2) | – | 1 | 470
CNC(=N)NCCC[C@H](NC(=O)[C@H](CC(C)C)NC(=O)NNC(=O)[C@H](Cc1ccccc1)NC(=O)[C@H](CO)NC(=O)[C@H](CC(N)=O)NC(=O)[C@@H](NC(=O)[C@@H](CC(N)=O)NC(=O)[C@H](N)Cc1ccc(O)cc1)[C@@H](C)O)C(=O)N[C@@H](Cc1ccc(F)cc1)C(N)=O [Compound No. 316, D-Tyr-D-Asn-Thr-Asn-Ser-Phe-AzaGly-Leu-Arg(Me)-Phe(4F)-NH2] (H-[dY][dN]TNSF[azaGly]L[Arg(Me)][Phe(4-F)]-NH2) | – | 1 | 26
